In US10745396B2, “Pesticidally active polycyclic derivatives with sulfur containing substituents” (Syngenta Participations AG, priority 2015, dated 2020):

What was measured:
Assay type in all cases: in vivo
[1] = tested on: Diabrotica balteata (Corn Root Worm); experiment: Diabrotica balteata, maize sprouts on agar, L2 larvae; details: 96 h, application rate of 200 ppm, 4 days after infestation, read-out: effect in at least one of the two categories (mortality or growth inhibition)
Method: Example B2: Diabrotica balteata (Corn Root Worm)
Maize sprouts placed onto an agar layer in 24-well microtiter plates were treated with aqueous test solutions prepared from 10′000 ppm DMSO stock solutions by spraying. After drying, the plates were infested with L2 larvae (6 to 10 per well). The samples were assessed for mortality and growth inhibition in comparison to untreated samples 4 days after infestation.

[2] = tested on: Euschistus heros (Neotropical Brown Stink Bug); experiment: Euschistus heros, soybean leaves on agar, N2 nymphs; details: 120 h, application rate of 200 ppm, 5 days after infestation, read-out: effect in at least one of the two categories (mortality or growth inhibition)
Method: Example B3: Euschistus heros (Neotropical Brown Stink Bug)
Soybean leaves on agar in 24-well microtiter plates were sprayed with aqueous test solutions prepared from 10′000 ppm DMSO stock solutions. After drying the leaves were infested with N2 nymphs. The samples were assessed for mortality and growth inhibition in comparison to untreated samples 5 days after infestation.

[3] = tested on: Plutella xylostella (Diamond Back Moth); experiment: Plutella xylostella, artificial diet, L2 larvae; details: 120 h, application rate of 200 ppm, 5 days after infestation, read-out: effect in at least one of the two categories (mortality or growth inhibition)
Method: Example B7: Plutella xylostella (Diamond Back Moth)
24-well microtiter plates with artificial diet were treated with aqueous test solutions prepared from 10′000 ppm DMSO stock solutions by pipetting. After drying, the plates were infested with L2 larvae (10 to 15 per well). The samples were assessed for mortality and growth inhibition in comparison to untreated samples 5 days after infestation.

[4] = tested on: Spodoptera littoralis (Egyptian Cotton Leaf Worm); experiment: Spodoptera littoralis, cotton leaf discs, L1 larvae; details: foliar, 72 h, application rate of 200 ppm, 3 days after infestation
Method: Example B8: Spodoptera littoralis (Egyptian Cotton Leaf Worm)
Cotton leaf discs were placed onto agar in 24-well microtiter plates and sprayed with aqueous test solutions prepared from 10′000 ppm DMSO stock solutions. After drying the leaf discs were infested with five L1 larvae. The samples were assessed for mortality, anti-feeding effect, and growth inhibition in comparison to untreated samples 3 days after infestation. Control of Spodoptera littoralis by a test sample is given when at least one of the categories mortality, anti-feedant effect, and growth inhibition is higher than the untreated sample.

[5] = tested on: Spodoptera littoralis (Egyptian Cotton Leaf Worm); experiment: Spodoptera littoralis, uptake by lettuce roots from agar, eggs; details: 144 h, test rate of 12.5 ppm, 6 days after infestation, read-out: effect in at least one of the three categories (mortality, anti-feeding, or growth inhibition)
Text: Example B9: Spodoptera littoralis (Egyptian Cotton Leaf Worm)
Test compounds were applied by pipette from 10′000 ppm DMSO stock solutions into 24-well plates and mixed with agar. Lettuce seeds were placed onto the agar and the multi well plate was closed by another plate which contained also agar. After 7 days the compound was absorbed by the roots and the lettuce grew into the lid plate. The lettuce leaves were then cut off into the lid plate. Spodoptera eggs were pipetted through a plastic stencil onto a humid gel blotting paper and the lid plate was closed with it. The samples were assessed for mortality, anti-feedant effect and growth inhibition in comparison to untreated samples 6 days after infestation.

[6] = tested on: Myzus persicae (Green Peach Aphid); experiment: Myzus persicae feeding/contact activity, sunflower leaf discs; details: foliar, 144 h, application rate of 200 ppm, 6 days after infestation
Method: Example B5: Myzus persicae (Green Peach Aphid): Feeding/Contact Activity
Sunflower leaf discs were placed onto agar in a 24-well microtiter plate and sprayed with aqueous test solutions prepared from 10′000 ppm DMSO stock solutions. After drying, the leaf discs were infested with an aphid population of mixed ages. The samples were assessed for mortality 6 days after infestation.

CCn1c(C(F)(F)F)cc2nc(-c3nc(-c4ccc(C(F)(F)F)cc4)ccc3S(=O)(=O)CC)n(C)c2c1=O [Compound P2, 5-ethyl-2-[3-ethylsulfonyl-6-[4-(trifluoromethyl)phenyl]-2-pyridyl]-3-methyl-6-(trifluoromethyl)imidazo[4,5-c]pyridin-4-one]
≥ 80%: percent effect (mortality or growth inhibition) at 200 ppm [1] | percent effect (mortality or growth inhibition) at 200 ppm [2] | percent effect (mortality or growth inhibition) at 200 ppm [3] | percent control (mortality, anti-feedant effect or growth inhibition) at 200 ppm [4]

CCS(=O)(=O)c1ccc(-n2cc(Cl)cn2)nc1-c1nc2cc(C(F)(F)F)n(C)c(=O)c2n1C [Compound P7, 2-[6-(4-chloropyrazol-1-yl)-3-ethylsulfonyl-2-pyridyl]-3,5-dimethyl-6-(trifluoromethyl)imidazo[4,5-c]pyridin-4-one]
≥ 80%: percent control (mortality, anti-feedant effect or growth inhibition) at 200 ppm [4]

CCS(=O)(=O)c1ccc(-n2cc(C(F)(F)F)cn2)nc1-c1nc2cc(C(F)(F)F)n(C)c(=O)c2n1C [Compound P9]
≥ 80%: percent effect (mortality or growth inhibition) at 200 ppm [1] | percent effect (mortality or growth inhibition) at 200 ppm [2] | percent effect (mortality or growth inhibition) at 200 ppm [3] | percent control (mortality, anti-feedant effect or growth inhibition) at 200 ppm [4]

CCn1c(C(F)(F)F)cc2nc(-c3nc(-c4ccc(Cl)c(Cl)c4)ccc3S(=O)(=O)CC)n(C)c2c1=O [Compound P10]
≥ 80%: percent effect (mortality or growth inhibition) at 200 ppm [1] | percent effect (mortality or growth inhibition) at 200 ppm [3] | percent control (mortality, anti-feedant effect or growth inhibition) at 200 ppm [4]

CCn1c(C(F)(F)F)cc2nc(-c3nc(-c4cc(F)cc(F)c4)ccc3S(=O)(=O)CC)n(C)c2c1=O [Compound P12]
≥ 80%: percent effect (mortality, anti-feeding or growth inhibition) at 12.5 ppm [5] | percent effect (mortality or growth inhibition) at 200 ppm [1] | percent effect (mortality or growth inhibition) at 200 ppm [2] | percent effect (mortality or growth inhibition) at 200 ppm [3] | percent control (mortality, anti-feedant effect or growth inhibition) at 200 ppm [4] | mortality at 200 ppm [6]

CCn1c(C(F)(F)F)cc2nc(-c3nc(-c4ccc(C#N)cc4)ccc3S(=O)(=O)CC)n(C)c2c1=O [Compound P15]
≥ 80%: percent effect (mortality, anti-feeding or growth inhibition) at 12.5 ppm [5] | percent effect (mortality or growth inhibition) at 200 ppm [1] | percent effect (mortality or growth inhibition) at 200 ppm [2] | percent effect (mortality or growth inhibition) at 200 ppm [3] | percent control (mortality, anti-feedant effect or growth inhibition) at 200 ppm [4]

CCn1c(C(F)(F)F)cc2nc(-c3nc(-c4cccc(Cl)c4)ccc3S(=O)(=O)CC)n(C)c2c1=O [Compound P17]
≥ 80%: percent effect (mortality or growth inhibition) at 200 ppm [1] | percent effect (mortality or growth inhibition) at 200 ppm [2] | percent effect (mortality or growth inhibition) at 200 ppm [3] | percent control (mortality, anti-feedant effect or growth inhibition) at 200 ppm [4] | mortality at 200 ppm [6]

CCn1c(C(F)(F)F)cc2nc(-c3nc(-c4ccccc4)ccc3S(=O)(=O)CC)n(C)c2c1=O [Compound P18]
≥ 80%: percent effect (mortality, anti-feeding or growth inhibition) at 12.5 ppm [5] | percent effect (mortality or growth inhibition) at 200 ppm [1] | percent effect (mortality or growth inhibition) at 200 ppm [2] | percent effect (mortality or growth inhibition) at 200 ppm [3] | percent control (mortality, anti-feedant effect or growth inhibition) at 200 ppm [4] | mortality at 200 ppm [6]

CCn1c(C(F)(F)F)cc2nc(-c3nc(-c4cc(F)cc(Cl)c4)ccc3S(=O)(=O)CC)n(C)c2c1=O [Compound P19]
≥ 80%: percent effect (mortality or growth inhibition) at 200 ppm [1] | percent effect (mortality or growth inhibition) at 200 ppm [3] | percent control (mortality, anti-feedant effect or growth inhibition) at 200 ppm [4]

CCn1c(C(F)(F)F)cc2nc(-c3nc(-c4ccc(OC(F)(F)F)cc4)ccc3S(=O)(=O)CC)n(C)c2c1=O [Compound P22]
≥ 80%: percent effect (mortality, anti-feeding or growth inhibition) at 12.5 ppm [5] | percent effect (mortality or growth inhibition) at 200 ppm [1] | percent effect (mortality or growth inhibition) at 200 ppm [2] | percent effect (mortality or growth inhibition) at 200 ppm [3] | percent control (mortality, anti-feedant effect or growth inhibition) at 200 ppm [4]

CCn1c(C(F)(F)F)cc2nc(-c3nc(-c4ccc(OC)c(F)c4)ccc3S(=O)(=O)CC)n(C)c2c1=O [Compound P23]
≥ 80%: percent effect (mortality or growth inhibition) at 200 ppm [1] | percent effect (mortality or growth inhibition) at 200 ppm [2] | percent effect (mortality or growth inhibition) at 200 ppm [3] | percent control (mortality, anti-feedant effect or growth inhibition) at 200 ppm [4] | mortality at 200 ppm [6]

CCn1c(C(F)(F)F)cc2nc(-c3nc(-c4ccc(Cl)c(C)c4)ccc3S(=O)(=O)CC)n(C)c2c1=O [Compound P24]
≥ 80%: percent effect (mortality or growth inhibition) at 200 ppm [1] | percent effect (mortality or growth inhibition) at 200 ppm [3] | percent control (mortality, anti-feedant effect or growth inhibition) at 200 ppm [4]

C/C=C/c1ccc(S(=O)(=O)CC)c(-c2nc3cc(C(F)(F)F)n(CC)c(=O)c3n2C)n1 [Compound P25]
≥ 80%: percent effect (mortality or growth inhibition) at 200 ppm [1] | percent control (mortality, anti-feedant effect or growth inhibition) at 200 ppm [4] | mortality at 200 ppm [6]

CCn1c(C(F)(F)F)cc2nc(-c3nc(-c4ccc(F)cc4)ccc3S(=O)(=O)CC)n(C)c2c1=O [Compound P26]
≥ 80%: percent effect (mortality or growth inhibition) at 200 ppm [3] | percent control (mortality, anti-feedant effect or growth inhibition) at 200 ppm [4]

CCn1c(C(F)(F)F)cc2nc(-c3nc(-c4ccsc4)ccc3S(=O)(=O)CC)n(C)c2c1=O [Compound P27]
≥ 80%: percent control (mortality, anti-feedant effect or growth inhibition) at 200 ppm [4]

CCn1c(C(F)(F)F)cc2nc(-c3nc(-c4cccnc4)ccc3S(=O)(=O)CC)n(C)c2c1=O [Compound P30]
≥ 80%: percent effect (mortality or growth inhibition) at 200 ppm [1] | percent effect (mortality or growth inhibition) at 200 ppm [2] | percent effect (mortality or growth inhibition) at 200 ppm [3] | percent control (mortality, anti-feedant effect or growth inhibition) at 200 ppm [4] | mortality at 200 ppm [6]

CCn1c(C(F)(F)F)cc2nc(-c3nc(-c4cncs4)ccc3S(=O)(=O)CC)n(C)c2c1=O [Compound P31]
≥ 80%: percent effect (mortality or growth inhibition) at 200 ppm [1] | percent effect (mortality or growth inhibition) at 200 ppm [3] | percent control (mortality, anti-feedant effect or growth inhibition) at 200 ppm [4] | mortality at 200 ppm [6]

CCn1c(C(F)(F)F)cc2nc(-c3nc(-c4ccc(Cl)cc4Cl)ccc3S(=O)(=O)CC)n(C)c2c1=O [Compound P32]
≥ 80%: percent effect (mortality or growth inhibition) at 200 ppm [1] | percent effect (mortality or growth inhibition) at 200 ppm [3] | percent control (mortality, anti-feedant effect or growth inhibition) at 200 ppm [4]

CCn1c(C(F)(F)F)cc2nc(-c3nc(-c4ccc(C(F)(F)F)cc4F)ccc3S(=O)(=O)CC)n(C)c2c1=O [Compound P33]
≥ 80%: percent effect (mortality or growth inhibition) at 200 ppm [1] | percent effect (mortality or growth inhibition) at 200 ppm [3] | percent control (mortality, anti-feedant effect or growth inhibition) at 200 ppm [4]

CCn1c(C(F)(F)F)cc2nc(-c3nc(-c4ccc(F)c(F)c4)ccc3S(=O)(=O)CC)n(C)c2c1=O [Compound P34]
≥ 80%: percent effect (mortality or growth inhibition) at 200 ppm [1] | percent effect (mortality or growth inhibition) at 200 ppm [3] | percent control (mortality, anti-feedant effect or growth inhibition) at 200 ppm [4]

CCn1c(C(F)(F)F)cc2nc(-c3nc(-c4cc(F)c(F)c(F)c4)ccc3S(=O)(=O)CC)n(C)c2c1=O [Compound P35]
≥ 80%: percent effect (mortality or growth inhibition) at 200 ppm [1] | percent effect (mortality or growth inhibition) at 200 ppm [2] | percent effect (mortality or growth inhibition) at 200 ppm [3] | percent control (mortality, anti-feedant effect or growth inhibition) at 200 ppm [4]

CCn1c(C(F)(F)F)cc2nc(-c3nc(-c4cc(C(F)(F)F)cc(C(F)(F)F)c4)ccc3S(=O)(=O)CC)n(C)c2c1=O [Compound P36]
≥ 80%: percent effect (mortality or growth inhibition) at 200 ppm [1] | percent effect (mortality or growth inhibition) at 200 ppm [3] | percent control (mortality, anti-feedant effect or growth inhibition) at 200 ppm [4]

CCn1c(C(F)(F)F)cc2nc(-c3nc(C4CC4)ccc3S(=O)(=O)CC)n(C)c2c1=O [Compound P39]
≥ 80%: percent effect (mortality, anti-feeding or growth inhibition) at 12.5 ppm [5] | percent effect (mortality or growth inhibition) at 200 ppm [1] | percent effect (mortality or growth inhibition) at 200 ppm [2] | percent effect (mortality or growth inhibition) at 200 ppm [3] | percent control (mortality, anti-feedant effect or growth inhibition) at 200 ppm [4] | mortality at 200 ppm [6]

CCS(=O)(=O)c1ccc(-c2cc(F)cc(F)c2)nc1-c1nc2cc(C(F)(F)F)n(C3CC3)c(=O)c2n1C [Compound P41]
≥ 80%: percent effect (mortality, anti-feeding or growth inhibition) at 12.5 ppm [5] | percent effect (mortality or growth inhibition) at 200 ppm [1] | percent effect (mortality or growth inhibition) at 200 ppm [3] | percent control (mortality, anti-feedant effect or growth inhibition) at 200 ppm [4]
